The target of assay [1] is T1, SaSDH (Staphylococcus aureus, UniProt Q6GGA5).
T1 construct: 6His-tag (N); made in house; host or cells: E. coli BL21(DE3)pLysS
T1 sequence (Q6GGA5 1-268): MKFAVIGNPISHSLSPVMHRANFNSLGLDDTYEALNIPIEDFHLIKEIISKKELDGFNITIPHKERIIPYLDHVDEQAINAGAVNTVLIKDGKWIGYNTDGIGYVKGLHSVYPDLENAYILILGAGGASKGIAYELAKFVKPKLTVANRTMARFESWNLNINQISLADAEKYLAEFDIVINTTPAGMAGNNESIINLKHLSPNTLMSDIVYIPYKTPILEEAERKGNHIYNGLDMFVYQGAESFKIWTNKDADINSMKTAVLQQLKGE
In words: SaSDH kinetic parameters for substrates. The assay is classed as biochemical, methicillin-resistant S. aureus. As to conditions: substrate of SaSDH; for Km: 25 °C, random bi-bi fit; for Vmax: saturating levels of both substrates; for Kd: read-out: Kia (dissociation constant). The protocol: Data were fitted to several models of bi-substrate reactions, all of which were analyzed using SigmaPlot Enzyme Kinetics Module v1.3. […] These were used to derive the turnover number (Kcat) and Kcat/Km.
(§1) Enzyme activity was measured spectrophotometrically at 25 °C at 340 nm, following NADPH generation (ε = 6.19 × 10^3 M^−1 cm^−1). The reaction mixture contained buffer A plus 1 mM SHK, 1 mM NADP^+, and 50 ng of SaSDH.
The data were linearized by the double-reciprocal transformation of Lineweaver and Burk. […] The inversion of the data matrix allowed the determination of the dissociation constant for NADP^+.

Assay [2] deals with T1, SaSDH. Description: SaSDH inhibition assays (single concentration and inhibition kinetics). The assay is classed as biochemical. The conditions noted are these: for inhibition at 200 µM: inhibition of SaSDH activity, compound at 200 µM; for IC50: i0.5 at 400 μM of substrate, 400 μM, 50% inhibition concentration; for Pattern (inhibition mechanism): Cornish-Bowden plot. The protocol: Once the model was built, a rigid body docking procedure for virtual screening with a library of small molecules was performed. Because the enzyme is absent in humans, we selected the substrate (SHK) binding site as the target for virtual screening (Figure 3A). From the one thousand small molecules studied, a database of 38,355 poses was generated. The one hundred molecules with the highest binding energies were selected, and the capacities of these molecules to inhibit SaSDH were assessed. Inhibition assays using a concentration of 200 µM of the latter molecules were performed.
In order to study the type of inhibition of compounds on SaSDH, pharmacological and kinetic parameters (i0.5, Kic and Kiu) were determined at various concentrations of these compounds, using SHK and NADP^+ respectively, as substrates. In Figure 4, the plots of reciprocal rate multiplied by the substrate concentrations (S/v) versus inhibitor concentration in the presence of SHK and NADP^+ are shown. The intercept of the extrapolated line on the [i] axis, that corresponds to each compound concentration, is ‒i0.5. This provided a single and accurate way of estimating i0.5, which is important if it is to be used to calculate the inhibition constant.
as §1
The data were fitted to equations for competitive, uncompetitive, non-competitive and mixed inhibition, respectively, using the kinetic module of SigmaPlot program v12.3. All experiments were repeated at least twice.
The 50% inhibition concentrations (i0.5) of compounds against SaSDH were determined and analyzed by fitting to [Equation (2)]. The inhibition mechanism and inhibition constant (Kic and Kiu) were studied by fitting the inhibition data to [Equation (3)]: [drawing 12] (2) [drawing 13] (3)
Kic is the inhibition constant derived from the intercepts, whereas Kiu is the constant derived from the slope of 1/i0.5 vs v/V plots.

The mark [3] stands for this setting: Kic, substrate shikimate, inhibitor binding to the substrate site.
[4] abbreviates: Kiu, substrate NADP^+, inhibitor binding to enzyme-substrate complex.

Several values for one entry are separate records, joined by “and”; a condition that tells them apart may be missing. Equal values may be shown once. Read-outs that look alike come from different tables or passages of the source.

Broadly, the Km is the concentration of substrate that gives half-maximal velocity. For orientation: Vmax means the top rate of the reaction or transport when substrate is in excess. With `NC(=O)c1ccc[n+]([C@@H]2O[C@H](COP(=O)([O-])OP(=O)(O)OC[C@H]3O[C@@H](n4cnc5c(N)ncnc54)[C@H](OP(=O)(O)O)[C@@H]3O)[C@@H](O)[C@H]2O)c1` [NADP^+], at SaSDH [1], the Kcat was 146 s⁻¹ and 146.16 s⁻¹; the Km is 42.6 ± 9.9 µM; the Vmax is 251 µmol/min/mg and 251.41 ± 7.2 µmol/min/mg; the Kd was 21 µM.

As for `O=C(O)C1=C[C@@H](O)[C@@H](O)[C@H](O)C1` [Shikimate, shikimate], at SaSDH [1], the Km worked out at 37.5 ± 3.7 µM, the maximal velocity (Vmax) is 233.6 ± 1.5 µmol/min/mg and the Kd stood at 21.2 µM. In addition, at SaSDH [1] (listed as SHK), the Vmax amounted to 233 µmol/min/mg and the Kd was 21.2 µM.

A word on the inhibition: it is the relative decrease from the control value, in per cent. Low values mean a weak effect, high ones a strong effect. On to `COC(=O)c1sc2ccccc2c1O` [compound 62], for which the inhibition at 200 µM on SaSDH [2] stood at 33%.

What is called Ki is a measure of affinity in units of concentration, obtained from inhibition or displacement. A word on the IC50: it is the concentration that gives 50% inhibition. Higher therefore signals a need for much substance. As for `O=C(O)c1ccc(-c2cccs2)s1` [compound 238, 2,2'-bithiophene-5-carboxylic acid], the Ki at SaSDH [2] (setting [3]) worked out at 9.53 µM; at SaSDH [2] (setting [4]), 48.3 µM. In addition, the figures for the half-maximal inhibitory concentration (IC50) against SaSDH [2] (substrate NADP^+) and at SaSDH [2] (substrate shikimate) were 108 µM and 123 µM, respectively. Besides, 200 µM produced 87% inhibition on SaSDH [2]. Besides, the figures for the “Pattern (inhibition mechanism)” value on SaSDH [2] (with respect to NADP^+) and at SaSDH [2] (with respect to shikimate) were “Uncompetitive” and “Competitive”, respectively.

As for `OCC1COc2ccccc2C1` (stereo not drawn) [compound 291], on SaSDH [2], testing at 200 µM gave an inhibition of 31%.

Take `O=C(O)c1ccc(CN2CCOCC2)cc1` [compound 306]: on SaSDH [2], the inhibition at 200 µM is 31%.

`CN(C)CCOc1ccccc1CO` [compound 463] gave an inhibition at 200 µM on SaSDH [2] of 45%.

Regarding `CN(CCO)c1cc(C(F)(F)F)nc2ccccc12` [compound 626], 200 µM produced 49% inhibition at SaSDH [2].

`CCCCC#Cc1ccc(C(=O)O)o1` [compound 637]: on SaSDH [2], testing at 200 µM gave an inhibition of 29%.

`O=C(O)c1csc(-c2ccc(C(F)(F)F)cc2)n1` [compound 692] displayed an inhibition at 200 µM against SaSDH [2] of 31%.

In the case of `Cc1c(O)ccc2c1OC(C)(C)CC2=O` [compound 766, 7-hydroxy-2,2,8-trimethyl-2,3-dihydro-4H-chromen-4-one], the Ki is 19.7 µM and 19.8 µM at SaSDH [2] (setting [3]); 11.3 µM at SaSDH [2] (setting [4]). Moreover, the IC50 against SaSDH [2] (substrate NADP^+) was found to be 564 µM; at SaSDH [2] (substrate shikimate) it was 343 µM. In addition, the inhibition at 200 µM against SaSDH [2] worked out at 87%. For the same compound, the “Pattern (inhibition mechanism)” value at SaSDH [2] (with respect to NADP^+) is on record as “Uncompetitive”; on SaSDH [2] (with respect to shikimate) it was “Competitive”.

For `O=C1COc2cc(O)ccc21` [compound 894, 6-hydroxy-2,3-dihydrobenzo[b]furan-3-one], the Ki at SaSDH [2] (Kic, substrate NADP^+, inhibitor binding to the substrate site) was found to be 901 µM; at SaSDH [2] (setting [3]), 58.3 µM; at SaSDH [2] (setting [4]), 5.2 µM; at SaSDH [2] (Kiu, substrate shikimate, inhibitor binding to enzyme-substrate complex) it was 1470 µM. Further, the IC50 was found to be 614 µM at SaSDH [2] (substrate NADP^+) and 143 µM against SaSDH [2] (substrate shikimate). The compound further showed an inhibition at 200 µM against SaSDH [2] of 99%. In addition, the “Pattern (inhibition mechanism)” value at SaSDH [2] (with respect to NADP^+) is recorded as “Mixed-uncompetitive”; on SaSDH [2] (with respect to shikimate) it was “Mixed-competitive”.

For the origin of these results see PMC6270726 (Molecules, 2014).
